Results on 23 molecules are retold here after PubChem BioAssay AID248 (DTP/NCI, 2004).

Each structure is given as a SMILES string. Where “and” joins values, the source holds several entries; their conditions need not be identical. Equal values may be shown once. Toxic doses and inconclusive results are not listed.

The test system of this test is L1210 leukemia ip in BDF1 mice, survival T/C. In words: NCI In Vivo Anticancer Drug Screen. Data for tumor model L1210 Leukemia (intraperitoneal) in B6D2F1 (BDF1) mice. As to conditions: endpoint: mean survival time, higher = longer survival. In short, it runs like this:
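In this screen, tumor-bearing mice given compound are compared to those given vehicle, and their survival values are reported as a treated-to-control quotient.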

[1] abbreviates: dose: 100.0 mg/kg/injection, schedule: Q01DX009 (ip), vehicle: saline with Tween-80.
[2] abbreviates: dose: 100.0 mg/kg/injection, schedule: Q04DX003 (ip), vehicle: saline with Tween-80.
Setting [3] is: dose: 200.0 mg/kg/injection, schedule: Q04DX003 (ip), vehicle: saline with Tween-80.
Setting [4] is: dose: 400.0 mg/kg/injection, schedule: Q04DX003 (ip), vehicle: saline with Tween-80.
Setting [5] is: dose: 100.0 mg/kg/injection, schedule: Q04DX003 (ip), vehicle: acetone.
The mark [6] stands for this setting: dose: 200.0 mg/kg/injection, schedule: Q04DX003 (ip), vehicle: acetone.
[7] abbreviates: dose: 400.0 mg/kg/injection, schedule: Q04DX003 (ip), vehicle: acetone.
[8] abbreviates: dose: 200.0 mg/kg/injection, schedule: Q01DX009 (ip), vehicle: saline with Tween-80.
Setting [9] is: dose: 400.0 mg/kg/injection, schedule: Q01DX009 (ip), vehicle: saline with Tween-80.
Setting [10] is: dose: 100.0 mg/kg/injection, schedule: Q01DX001 (ip), vehicle: saline.
[11] abbreviates: dose: 200.0 mg/kg/injection, schedule: Q01DX001 (ip), vehicle: saline.
[12] abbreviates: dose: 400.0 mg/kg/injection, schedule: Q01DX001 (ip), vehicle: saline.
Setting [13] is: dose: 100.0 mg/kg/injection, schedule: Q01DX001 (ip), vehicle: carboxymethylcellulose (CMC).
Where [14] appears, read: dose: 200.0 mg/kg/injection, schedule: Q01DX001 (ip), vehicle: carboxymethylcellulose (CMC).
The mark [15] stands for this setting: dose: 400.0 mg/kg/injection, schedule: Q01DX001 (ip), vehicle: carboxymethylcellulose (CMC).
[16] abbreviates: dose: 100.0 mg/kg/injection, schedule: Q04DX003 (ip), vehicle: saline.
The mark [17] stands for this setting: dose: 200.0 mg/kg/injection, schedule: Q04DX003 (ip), vehicle: saline.
Where [18] appears, read: dose: 400.0 mg/kg/injection, schedule: Q04DX003 (ip), vehicle: saline.
[19] abbreviates: dose: 25.0 mg/kg/injection, schedule: Q01DX009 (ip), vehicle: saline.
The mark [20] stands for this setting: dose: 50.0 mg/kg/injection, schedule: Q01DX009 (ip), vehicle: saline.
Setting [21] is: dose: 100.0 mg/kg/injection, schedule: Q01DX009 (ip), vehicle: saline.

Turning to `Nc1nc2c(ncn2-c2cccc(NC(=O)Nc3cc(S(=O)(=O)F)ccc3Cl)c2)c(=O)[nH]1`, the T/C was 87 % of control (dose: 12.5 mg/kg/injection, schedule: Q01DX001 (ip), vehicle: Klucel (hydroxypropylcellulose) (HPC)); 96 % of control (dose: 25.0 mg/kg/injection, schedule: Q01DX001 (ip), vehicle: Klucel (hydroxypropylcellulose) (HPC)); 89 % of control (dose: 50.0 mg/kg/injection, schedule: Q01DX001 (ip), vehicle: Klucel (hydroxypropylcellulose) (HPC)).
With `O=C(C[n+]1cccc2ccccc21)c1ccc([N+](=O)[O-])cc1`, the T/C (dose: 100.0 mg/kg/injection, schedule: Q04DX002 (ip), vehicle: saline with Tween-80) is 109 % of control.
For the molecule `Nc1cnccc1N1CCN(c2cccc3ccccc23)CC1`, the T/C reads like this: (dose: 44.0 mg/kg/injection, schedule: Q01DX009 (ip), vehicle: saline with Tween-80) 98 % of control; (dose: 67.0 mg/kg/injection, schedule: Q01DX009 (ip), vehicle: saline with Tween-80) 93 % of control; under setting [1], 155 % of control; under setting [2], 98 % of control; under setting [3], 96 % of control; under setting [4], 89 % of control.
Turning to `O=C(O)c1ccc(NCO)cc1`, the T/C reads like this: under setting [5], 94 % of control; under setting [6], 102 % of control; under setting [7], 108 % of control.
For `COc1cc(C(=O)O)cc(OC)c1OC(C)=O`, the T/C by setting is: under setting [1], 104 % of control; under setting [8], 98 % of control; under setting [9], 88 % of control.
`CCN(CC)Cc1cc(O)c(CN(CC)CC)cc1O`: the T/C by setting is: (dose: 25.0 mg/kg/injection, schedule: Q01DX001 (ip), vehicle: saline with Tween-80) 93 % of control; (dose: 50.0 mg/kg/injection, schedule: Q01DX001 (ip), vehicle: saline with Tween-80) 103 % of control; (dose: 100.0 mg/kg/injection, schedule: Q01DX001 (ip), vehicle: saline with Tween-80) 96 % of control.
Turning to `CC(=O)[C@H]1CC[C@H]2[C@@H]3CCC4=CC(=O)[C@H](C)C[C@]4(C)[C@@]3(F)[C@@H](O)C[C@]12C`, the T/C (dose: 125.0 mg/kg/injection, schedule: Q01DX Z (sc), vehicle: steriod suspending solution) is 105 % of control; the T/C (dose: 250.0 mg/kg/injection, schedule: Q01DX Z (sc), vehicle: steriod suspending solution) was 111 % of control; the T/C (dose: 375.0 mg/kg/injection, schedule: Q01DX Z (sc), vehicle: steriod suspending solution) is 105 % of control; the T/C (dose: 500.0 mg/kg/injection, schedule: Q01DX Z (sc), vehicle: steriod suspending solution) was 103 % of control.
For `Cc1cc(C)cc(C(O)(c2cc(C)cc(C)c2)c2cc(C)cc(C)c2)c1`, the T/C was 102 % of control under setting [2], 116 % of control under setting [3] and 94 % of control under setting [4].
As for `Cc1ccc(S(=O)(=O)NC(=O)N(C)c2cc(N3CCCC3)ccn2)cc1`, the T/C runs as follows: under setting [10], 102 % of control; under setting [11], 96 % of control; under setting [12], 100 % of control.
For `CC(C)(C)C1=CC(C(C)(C)C)CCC1=O` (centres undefined), the T/C runs as follows: under setting [5], 98 % of control; under setting [6], 102 % of control; under setting [7], 92 % of control.
As for `CCOC(=O)COc1cc(N)c(Cl)cc1Cl`, the T/C (dose: 100.0 mg/kg/injection, schedule: Q04DX002 (ip), vehicle: gum acacia) was 95 % of control; the T/C (dose: 200.0 mg/kg/injection, schedule: Q04DX002 (ip), vehicle: gum acacia) was 95 % of control; the T/C (dose: 400.0 mg/kg/injection, schedule: Q04DX002 (ip), vehicle: gum acacia) is 92 % of control.
Consider `CCOC(=O)c1nn2c(C)nnc2s1`, for which the T/C under setting [13] was 98 % of control, the T/C under setting [14] is 96 % of control and the T/C under setting [15] is 98 % of control.
`CNC(=O)NNC(=O)CNC(=O)Nc1cccc(C(F)(F)F)c1`: the T/C by setting is: (dose: 12.5 mg/kg/injection, schedule: Q01DX009 (ip), vehicle: Klucel (hydroxypropylcellulose) (HPC)) 94 % of control; (dose: 25.0 mg/kg/injection, schedule: Q01DX009 (ip), vehicle: Klucel (hydroxypropylcellulose) (HPC)) 102 % of control; (dose: 50.0 mg/kg/injection, schedule: Q01DX009 (ip), vehicle: Klucel (hydroxypropylcellulose) (HPC)) 98 % of control.
For `COc1ccc(O)c(/C=C\C=O)c1`, the T/C reads like this: under setting [13], 100 % of control; under setting [14], 100 % of control; under setting [15], 106 % of control.
Take `CCOC(=O)c1c(C)nc(C)c(C(=O)OCC)c1-c1ccc(N(C)C)cc1`: the T/C is 101 % of control (dose: 25.6 mg/kg/injection, schedule: Q04DX002 (ip), vehicle: saline with Tween-80) and 97 % of control (dose: 64.0 mg/kg/injection, schedule: Q04DX002 (ip), vehicle: saline with Tween-80).
For the molecule `CSC(=S)NNC(=O)C1CCCCC1`, the T/C reads like this: under setting [16], 106 % of control; under setting [17], 98 % of control; under setting [18], 104 % of control.
Turning to `CC(C)(CO)NCc1ccc(Cl)cc1`, the T/C by setting is: under setting [10], 93 % of control; under setting [11], 97 % of control.
As to `NC(CO)CSCc1ccccc1` (centres undefined), the T/C is 105 % of control (dose: 6.25 mg/kg/injection, schedule: Q01DX009 (ip), vehicle: saline); 100 % of control (dose: 12.5 mg/kg/injection, schedule: Q01DX009 (ip), vehicle: saline); 110 % of control and 113 % of control under setting [19]; 100 % of control and 102 % of control under setting [20]; 104 % of control under setting [21].
Consider `CC(C)(C)OC1C2C=CC1C=C2` (centres undefined), for which the T/C by setting is: (dose: 12.5 mg/kg/injection, schedule: Q04DX003 (ip), vehicle: Klucel (hydroxypropylcellulose) (HPC)) 93 % of control; (dose: 25.0 mg/kg/injection, schedule: Q04DX003 (ip), vehicle: Klucel (hydroxypropylcellulose) (HPC)) 91 % of control; (dose: 50.0 mg/kg/injection, schedule: Q04DX003 (ip), vehicle: Klucel (hydroxypropylcellulose) (HPC)) 91 % of control; (dose: 100.0 mg/kg/injection, schedule: Q04DX003 (ip), vehicle: Klucel (hydroxypropylcellulose) (HPC)) 95 % of control.
In the case of `N#Cc1nn(C2OC(CO)C(O)C2O)c2ncnc(N)c12` (centres undefined), the T/C by setting is: under setting [19], 110 % of control; (dose: 50.0 mg/kg/injection, schedule: Q01DX005 (ip), vehicle: saline) 117 % of control; under setting [20], 114 % of control; (dose: 100.0 mg/kg/injection, schedule: Q01DX005 (ip), vehicle: saline) 97 % of control.
Regarding `O=C(/C=C/c1ccc(F)cc1)c1ccc(Cl)cc1`, the T/C is 101 % of control under setting [1]; 96 % of control under setting [2]; 92 % of control under setting [8]; 90 % of control under setting [3]; 103 % of control under setting [9]; 94 % of control under setting [4].
With `O=C(O)C1CCCN1[N+](=O)[O-]` (centres undefined), the T/C is 100 % of control under setting [10], 104 % of control under setting [11] and 110 % of control under setting [12].
Take `O=C(Oc1ccc([N+](=O)[O-])cc1)c1ccc(C[P+](c2ccccc2)(c2ccccc2)c2ccccc2)cc1`: the T/C is 98 % of control under setting [21]; 93 % of control under setting [16]; 98 % of control (dose: 200.0 mg/kg/injection, schedule: Q01DX009 (ip), vehicle: saline); 90 % of control under setting [17]; 96 % of control (dose: 400.0 mg/kg/injection, schedule: Q01DX009 (ip), vehicle: saline); 93 % of control under setting [18].
